Data reported in US20020111274A1, “1-alkyl-3-[1-(substituted phenyl) benzotriazol-6-yl] uracils” (BASF Aktiengesellschaft, priority 2000, published 2002).

Tests used:
Design in all cases: scale not given here
[1] = test system: CASOB Sicklepod; experiment: Preemergence herbicidal evaluation, CASOB; assay type: in vivo, Cassia obtusifolia, L.; details: preemergence
Description: (§1) The preemergence herbicidal activity of the test compounds of the present invention is exemplified by the following tests in which the seeds of a variety of monocotyledonous and dicotyledonous plants are separately mixed with potting soil and planted on top of approximately one inch of soil in separate pint cups. […] The treated cups are then placed on greenhouse benches, watered and cared for in accordance with conventional greenhouse procedures. From four to five weeks after treatment, the tests are terminated and each cup is examined and rated according to the rating system provided in Example 46.

[2] = test system: AMBEL Ragweed, Common; experiment: Postemergence herbicidal evaluation, AMBEL; assay type: in vivo, Ambrosia artemisifolia, L.; details: postemergence spray, rated about two-three weeks after treatment
Method: (§2) In this evaluation, seedling plants are grown in jiffy flats for about two weeks. The test compounds are dispersed in 80/20 acetone/water mixtures containing 1.0% SUN-IT® II, a methylated seed oil, in sufficient quantities to provide the equivalent of about 0.006 kg to 0.400 kg per hectare of active compound when applied to the plants through a spray nozzle operating at 40 psi for a predetermined time. After spraying, the plants are placed on greenhouse benches and are cared for in accordance with conventional greenhouse procedures. Approximately two - three weeks after treatment, the seedling plants are examined and rated according to the rating system set forth below. Where more than one test is involved for a given compound, the data are averaged.

[3] = test system: SETVI Foxtail, Green; experiment: Postemergence herbicidal evaluation, SETVI; assay type: in vivo, Setaria viridis, (L.) Beau; details: postemergence spray, rated about two-three weeks after treatment
Method: as §2

[4] = test system: ORYSAT Rice, Tebonnet; experiment: Postemergence herbicidal evaluation, ORYSAT; assay type: in vivo, Oryza sativa, (L.); details: postemergence spray, rated about two-three weeks after treatment
Method: as §2

[5] = test system: GALAP Galium; experiment: Postemergence herbicidal evaluation, GALAP; assay type: in vivo, Galium aparine; details: postemergence spray, rated about two-three weeks after treatment
Method: as §2

[6] = test system: CASOB Sicklepod; experiment: Postemergence herbicidal evaluation, CASOB; assay type: in vivo, Cassia obtusifolia, L.; details: postemergence spray, rated about two-three weeks after treatment
Method: as §2

[7] = test system: ZEAMX Corn, Field; experiment: Preemergence herbicidal evaluation, ZEAMX; assay type: in vivo, Zea mays, L. (Sammel-Bezeichnung); details: preemergence
Description: as §1

[8] = test system: IPOHE Morningglory, Ivyleaf; experiment: Postemergence herbicidal evaluation, IPOHE; assay type: in vivo, Ipomoea hederacea, (L.) Jacq.; details: postemergence spray, rated about two-three weeks after treatment
Method: as §2

[9] = test system: SETVI Foxtail, Green; experiment: Preemergence herbicidal evaluation, SETVI; assay type: in vivo, Setaria viridis, (L.) Beau; details: preemergence
Description: as §1

[10] = test system: ORYSAT Rice, Tebonnet; experiment: Preemergence herbicidal evaluation, ORYSAT; assay type: in vivo, Oryza sativa, (L.); details: preemergence
Description: as §1

[11] = test system: GLXMAW Soybean, Williams; experiment: Postemergence herbicidal evaluation, GLXMAW; assay type: in vivo, Glycine max, (L.) Merr. cv Williams; details: postemergence spray, rated about two-three weeks after treatment
Method: as §2

[12] = test system: CHEAL Lambsquarters, Common; experiment: Postemergence herbicidal evaluation, CHEAL; assay type: in vivo, Chenopodium album, L.; details: postemergence spray, rated about two-three weeks after treatment
Method: as §2

[13] = test system: ZEAMX Corn, Field; experiment: Postemergence herbicidal evaluation, ZEAMX; assay type: in vivo, Zea mays, L. (Sammel-Bezeichnung); details: postemergence spray, rated about two-three weeks after treatment
Method: as §2

[14] = test system: GLXMAW Soybean, Williams; experiment: Preemergence herbicidal evaluation, GLXMAW; assay type: in vivo, Glycine max, (L.) Merr. cv Williams; details: preemergence
Description: as §1

[15] = test system: TRZAWR Wheat, Winter, cv Riband; experiment: Postemergence herbicidal evaluation, TRZAWR; assay type: in vivo, Triticum aestivum; details: postemergence spray, rated about two-three weeks after treatment
Method: as §2

[16] = test system: AMBEL Ragweed, Common; experiment: Preemergence herbicidal evaluation, AMBEL; assay type: in vivo, Ambrosia artemisifolia, L.; details: preemergence
Description: as §1

[17] = test system: CHEAL Lambsquarters, Common; experiment: Preemergence herbicidal evaluation, CHEAL; assay type: in vivo, Chenopodium album, L.; details: preemergence
Description: as §1

[18] = test system: IPOHE Morningglory, Ivyleaf; experiment: Preemergence herbicidal evaluation, IPOHE; assay type: in vivo, Ipomoea hederacea, (L.) Jacq.; details: preemergence
Description: as §1

[19] = test system: TRZAWR Wheat, Winter, cv Riband; experiment: Preemergence herbicidal evaluation, TRZAWR; assay type: in vivo, Triticum aestivum; details: preemergence
Description: as §1

[20] = test system: GALAP Galium; experiment: Preemergence herbicidal evaluation, GALAP; assay type: in vivo, Galium aparine; details: preemergence
Description: as §1

[21] = test system: ABUTH Velvetleaf; experiment: Postemergence herbicidal evaluation, ABUTH; assay type: in vivo, Abutilon theophrasti, Medic.; details: postemergence spray, rated about two-three weeks after treatment
Method: as §2

[22] = test system: ABUTH Velvetleaf; experiment: Preemergence herbicidal evaluation, ABUTH; assay type: in vivo, Abutilon theophrasti, Medic.; details: preemergence
Description: as §1

[23] = test system: ECHOG Barnyardgrass; experiment: Preemergence herbicidal evaluation, ECHOG; assay type: in vivo, Echinochloa crus-galli, (L.) Beau; details: preemergence
Description: as §1

[24] = test system: ECHOG Barnyardgrass; experiment: Postemergence herbicidal evaluation, ECHOG; assay type: in vivo, Echinochloa crus-galli, (L.) Beau; details: postemergence spray, rated about two-three weeks after treatment
Method: as §2

Cc1ccccc1-n1nnc2cc(F)c(-n3c(=O)cc(C(F)(F)F)n(C)c3=O)cc21 [Example 20]
8.0: SETVI herbicidal rating ([9]; rate 0.032 kg/ha) | ECHCG herbicidal rating ([23]; rate 0.125 kg/ha)
5.0: Postemergence herbicidal rating CHEAL ([12]; 0.062 kg/ha) | Postemergence herbicidal rating ZEAMX ([13]; 0.062 kg/ha)
9.0: Postemergence herbicidal rating GALAP ([5]; 0.062 kg/ha) | Postemergence herbicidal rating IPOHE ([8]; 0.062 kg/ha) | SETVI herbicidal rating ([9]; rate 0.062 kg/ha) | SETVI herbicidal rating ([9]; rate 0.125 kg/ha) | CHEAL herbicidal rating ([17]; rate 0.016 kg/ha) | CHEAL herbicidal rating ([17]; rate 0.032 kg/ha) | CHEAL herbicidal rating ([17]; rate 0.062 kg/ha) | CHEAL herbicidal rating ([17]; rate 0.125 kg/ha) | Postemergence herbicidal rating ABUTH ([21]; 0.008 kg/ha) | Postemergence herbicidal rating ABUTH ([21]; 0.016 kg/ha) | Postemergence herbicidal rating ABUTH ([21]; 0.032 kg/ha) | Postemergence herbicidal rating ABUTH ([21]; 0.062 kg/ha) | ABUTH herbicidal rating ([22]; rate 0.062 kg/ha) | ABUTH herbicidal rating ([22]; rate 0.125 kg/ha)
3.5: Postemergence herbicidal rating ZEAMX ([13]; 0.016 kg/ha) | Postemergence herbicidal rating ZEAMX ([13]; 0.032 kg/ha) | ECHCG herbicidal rating ([23]; rate 0.062 kg/ha)
5.5: Postemergence herbicidal rating GLXMAW ([11]; 0.016 kg/ha) | Postemergence herbicidal rating GLXMAW ([11]; 0.032 kg/ha) | Postemergence herbicidal rating GLXMAW ([11]; 0.062 kg/ha) | AMBEL herbicidal rating ([16]; rate 0.125 kg/ha)
1.5: GLXMAW herbicidal rating ([14]; rate 0.062 kg/ha) | Postemergence herbicidal rating TRZAWR ([15]; 0.008 kg/ha) | Postemergence herbicidal rating TRZAWR ([15]; 0.016 kg/ha) | Postemergence herbicidal rating TRZAWR ([15]; 0.032 kg/ha) | AMBEL herbicidal rating ([16]; rate 0.032 kg/ha)
3.0: Postemergence herbicidal rating AMBEL ([2]; 0.062 kg/ha) | ORYSAT herbicidal rating ([10]; rate 0.125 kg/ha) | Postemergence herbicidal rating GLXMAW ([11]; 0.008 kg/ha) | Postemergence herbicidal rating CHEAL ([12]; 0.032 kg/ha) | Postemergence herbicidal rating ZEAMX ([13]; 0.008 kg/ha) | GLXMAW herbicidal rating ([14]; rate 0.125 kg/ha) | IPOHE herbicidal rating ([18]; rate 0.032 kg/ha)
4.0: Postemergence herbicidal rating IPOHE ([8]; 0.016 kg/ha) | Postemergence herbicidal rating IPOHE ([8]; 0.032 kg/ha) | TRZAWR herbicidal rating ([19]; rate 0.062 kg/ha)
6.0: ZEAMX herbicidal rating ([7]; rate 0.125 kg/ha) | TRZAWR herbicidal rating ([19]; rate 0.125 kg/ha)
2.0: CASOB herbicidal rating ([1]; rate 0.125 kg/ha) | Postemergence herbicidal rating GALAP ([5]; 0.032 kg/ha)
6.5: ABUTH herbicidal rating ([22]; rate 0.032 kg/ha)
0.5: Postemergence herbicidal rating ORYSAT ([4]; 0.016 kg/ha) | Postemergence herbicidal rating ORYSAT ([4]; 0.032 kg/ha) | GLXMAW herbicidal rating ([14]; rate 0.032 kg/ha)
1.0: Postemergence herbicidal rating AMBEL ([2]; 0.016 kg/ha) | Postemergence herbicidal rating AMBEL ([2]; 0.032 kg/ha) | Postemergence herbicidal rating ORYSAT ([4]; 0.062 kg/ha) | Postemergence herbicidal rating CASOB ([6]; 0.062 kg/ha) | ZEAMX herbicidal rating ([7]; rate 0.032 kg/ha) | Postemergence herbicidal rating IPOHE ([8]; 0.008 kg/ha) | ORYSAT herbicidal rating ([10]; rate 0.062 kg/ha)
2.5: Postemergence herbicidal rating TRZAWR ([15]; 0.062 kg/ha) | AMBEL herbicidal rating ([16]; rate 0.062 kg/ha)
0.0: CASOB herbicidal rating ([1]; rate 0.016 kg/ha) | CASOB herbicidal rating ([1]; rate 0.032 kg/ha) | CASOB herbicidal rating ([1]; rate 0.062 kg/ha) | Postemergence herbicidal rating AMBEL ([2]; 0.008 kg/ha) | Postemergence herbicidal rating SETVI ([3]; 0.008 kg/ha) | Postemergence herbicidal rating SETVI ([3]; 0.016 kg/ha) | Postemergence herbicidal rating SETVI ([3]; 0.032 kg/ha) | Postemergence herbicidal rating SETVI ([3]; 0.062 kg/ha) | Postemergence herbicidal rating ORYSAT ([4]; 0.008 kg/ha) | Postemergence herbicidal rating GALAP ([5]; 0.008 kg/ha) | Postemergence herbicidal rating GALAP ([5]; 0.016 kg/ha) | Postemergence herbicidal rating CASOB ([6]; 0.008 kg/ha) | Postemergence herbicidal rating CASOB ([6]; 0.016 kg/ha) | Postemergence herbicidal rating CASOB ([6]; 0.032 kg/ha) | ZEAMX herbicidal rating ([7]; rate 0.016 kg/ha) | SETVI herbicidal rating ([9]; rate 0.016 kg/ha) | ORYSAT herbicidal rating ([10]; rate 0.016 kg/ha) | ORYSAT herbicidal rating ([10]; rate 0.032 kg/ha) | Postemergence herbicidal rating CHEAL ([12]; 0.008 kg/ha) | Postemergence herbicidal rating CHEAL ([12]; 0.016 kg/ha) | GLXMAW herbicidal rating ([14]; rate 0.016 kg/ha) | AMBEL herbicidal rating ([16]; rate 0.016 kg/ha) | IPOHE herbicidal rating ([18]; rate 0.016 kg/ha) | TRZAWR herbicidal rating ([19]; rate 0.016 kg/ha) | TRZAWR herbicidal rating ([19]; rate 0.032 kg/ha) | GALAP herbicidal rating ([20]; rate 0.016 kg/ha) | GALAP herbicidal rating ([20]; rate 0.032 kg/ha) | GALAP herbicidal rating ([20]; rate 0.062 kg/ha) | GALAP herbicidal rating ([20]; rate 0.125 kg/ha) | ABUTH herbicidal rating ([22]; rate 0.016 kg/ha) | ECHCG herbicidal rating ([23]; rate 0.016 kg/ha) | ECHCG herbicidal rating ([23]; rate 0.032 kg/ha) | Postemergence herbicidal rating ECHCG ([24]; 0.008 kg/ha) | Postemergence herbicidal rating ECHCG ([24]; 0.016 kg/ha) | Postemergence herbicidal rating ECHCG ([24]; 0.032 kg/ha) | Postemergence herbicidal rating ECHCG ([24]; 0.062 kg/ha)
4.5: ZEAMX herbicidal rating ([7]; rate 0.062 kg/ha) | IPOHE herbicidal rating ([18]; rate 0.062 kg/ha) | IPOHE herbicidal rating ([18]; rate 0.125 kg/ha)
